In patent US11459315B2, “Modulators of methyl modifying enzymes, compositions and uses thereof” (Constellation Pharmaceuticals, Inc., priority 2017, dated 2022):
Where two headings read alike, the source gives them in different places.

What was measured:
[1] = test system: H3K27me3 mark in HeLa cells (EZH2); assay: H3K27me3 Alpha Hela Assay (AlphaLISA); assay type: cell-based
Protocol: H3K27me3 Alpha Hela Assay (AlphaLISA). Ten different doses of each test compound (in a series of 3-fold dilutions) were plated in duplicate 384-well tissue culture treated plates (Catalog #6007680; Perkin Elmer, Waltham, Mass.). Hela cells grown in culture were trypsinized and counted using a Countess® cell counter (Catalog #C10281; Life Technologies, Grand Island, N.Y.). Cell were diluted to 67,000 cells per mL in 10% DMEM (Catalog #10569-010 Life Technologies, Grand Island, N.Y.) and 15 μL (1,000 cells) were plated into each well using the Biotek MicroFlo™ Select Dispenser (BioTek Instruments, Inc. Vermont, USA),) of the 384-well plate. Plates were incubated at 37° C./5% CO2 for 72 hrs. One of the duplicate plates was processed for HeLa assay and the other for viability.
5 μL of Cell-Histone Lysis buffer (1×) (Catalog #AL009F1 Perkin Elmer; Waltham, Mass.) per well was added to the plate processed for AlphaLISA and the plate was incubated at RT for 30 minutes on a plate shaker with low speed (Model #4625-Q Thermo Scientific; Waltham, Mass.). Then, 10 μL per well Histone Extraction buffer (catalog #AL009F2; Perkin Elmer; Waltham, Mass.) was added and the plate further incubated at RT for 20 min on plate shaker with low speed. Next, 10 μL of 5× mix of anti-K27me3 acceptor beads plus Biotinylated anti-Histone H3 (C-ter) Antibody (diluted to 3 nM final) (Catalog #AL118 Perkin Elmer; Waltham, Mass.) was added in each well. Dilution of the acceptor beads and anti-Histone H3 was done in 1× Histone Detection buffer (Catalog #AL009F3 Perkin Elmer; Waltham, Mass.) which was produced by diluting the 10× stock provided. The plate was sealed with an aluminum plate sealer and incubated at 23° C. for 60 min. Next, 10 μL 5× solution of Streptavidin Donor beads were added (Catalog #6760002 Perkin Elmer; Waltham, Mass.) (20 μg/mL final in 1× Histone Detection Buffer), =plate was sealed with Aluminum plate sealer and incubated at 23° C. for 30 min. The plates were then read using an EnVision-Alpha Reader (model #2104 Perkin Elmer; Waltham, Mass.).
Data from both assays was analyzed using Genedata (Basel, Switzerland). Data files were imported to Genedata and assay conditions were specified. A unique Analysis ID was created and the data files analysed to measure dose-dependent inhibition of H3K27me3 mark and cell viability respectively. Readout of DMSO wells were used to normalize the data. Resulting curves were fitted using Smart fit application (Genedata; Basel, Switzerland). The data was checked for quality, validated and integrated in excel format using Stardrop (Optibruim, Cambridge, UK).
EC50 values are reported as follows: “A” indicates an EC50 value of less than 10 nM; “B” indicates an EC50 value of 10 nM to 100 nM; “C” indicates an EC50 value of greater than 100 nM; and “ND” is not determined.

PRC2 containing wt EZH2 = PRC2 containing wt EZH2 (Homo sapiens (Human), UniProt Q15910); assay: EZH2 biochemical assay (IC50), 3H-SAM incorporation into biotinylated H3 peptide
Protocol: EZH2 biochemical assay (IC50): Compound potencies were assessed through incorporation of ^3H-SAM into a biotinylated H3 peptide. Specifically, 30 pM PRC2 containing wt EZH2 (pentameric complex prepared in-house) was pre-incubated with 450 nM SAM, 450 nM ^3H-SAM, 2 μM H3K27me3 activating peptide (H2N-[…](Kme3)[…]-amide) and compounds (as 10 point duplicate dose response titrations in DMSO, final assay 0.8% DMSO (v/v)) for 3-5 h in 50 mM Tris (pH 8.5), 1 mM DTT, 0.07 mM Brij-35, 0.1% BSA, and 0.8% DMSO in a total volume of 12.5 μl. Reaction was initiated with biotinylated H3 substrate peptide (H2N-[…](Kme1)[…]-NTPEGBiot) as a 2 μM stock in 12.5 μl of buffer and allowed to react at room temperature for 18-22 h. Quenching was accomplished by addition of 20 μl of STOP solution (50 mM Tris (pH 8.5), 200 mM EDTA, 2 mM SAH). 35 μl of the quenched solution was transferred to streptavidin coated FlashPlates (PerkinElmer), incubated 1-2 h, washed, and read in a TopCount Reader (PerkinElmer). IC50s were calculated in Genedata Screener using non-linear least square four parameter fits, where the four parameters were IC50, Hill slope, pre-transitional baseline (0% INH), and post-transitional baseline (100% INH).
IC50 values are reported as follows: “A” indicates an IC50 value of less than 0.5 nM; “B” indicates an IC50 value of 0.5 nM to 5 nM; “C” indicates an IC50 value of greater than 5 nM for each enzyme; and “ND” is not determined.

[2] = Homo sapiens, HeLa, HeLa cell assay, Table 3 classes, read-out: EC50 Cellular Activity
[3] = Homo sapiens, HeLa, 72 h, HeLa cells, 72 hrs, read-out: EZH2 Cell H3K27me3 Alpha HeLa (EC50 K27me3)
[4] = 30 pM PRC2 containing wt EZH2; 3-5 h pre-incubation; read-out: EZH2 (IC50)
[5] = HeLa cells, 72 hrs, read-out: EZH2 Cell H3K27me3 Alpha HeLa (EC50 K27me3)
[6] = EZH2 (IC50), 30 pM PRC2 containing wt EZH2; 3-5 h pre-incubation
[7] = read-out: EZH2 (IC50); 30 pM PRC2 containing wt EZH2; 3-5 h pre-incubation
[8] = HeLa cell assay, Table 3 classes, read-out: EC50 Cellular Activity

Chain of PRC2 containing wt EZH2 (Q15910 whole entry): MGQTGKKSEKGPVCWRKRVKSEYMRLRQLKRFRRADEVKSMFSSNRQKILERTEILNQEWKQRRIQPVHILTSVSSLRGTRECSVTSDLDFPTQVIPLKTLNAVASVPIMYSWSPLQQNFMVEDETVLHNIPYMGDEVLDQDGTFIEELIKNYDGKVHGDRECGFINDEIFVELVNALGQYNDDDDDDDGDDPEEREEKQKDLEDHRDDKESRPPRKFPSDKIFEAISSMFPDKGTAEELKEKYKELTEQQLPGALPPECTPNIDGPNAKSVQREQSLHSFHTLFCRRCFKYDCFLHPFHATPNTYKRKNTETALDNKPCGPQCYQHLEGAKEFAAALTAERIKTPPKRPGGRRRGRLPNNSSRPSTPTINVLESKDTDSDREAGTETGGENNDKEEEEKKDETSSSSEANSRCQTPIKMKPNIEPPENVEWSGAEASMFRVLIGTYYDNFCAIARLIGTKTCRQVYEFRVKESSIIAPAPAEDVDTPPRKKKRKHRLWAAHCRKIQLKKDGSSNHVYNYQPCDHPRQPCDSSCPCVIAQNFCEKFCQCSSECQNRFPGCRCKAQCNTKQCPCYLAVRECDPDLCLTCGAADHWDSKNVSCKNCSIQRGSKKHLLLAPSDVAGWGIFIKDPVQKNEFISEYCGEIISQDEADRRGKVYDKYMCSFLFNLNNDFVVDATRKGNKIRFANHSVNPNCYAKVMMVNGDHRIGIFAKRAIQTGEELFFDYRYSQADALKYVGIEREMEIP
Chain of PRC2 containing wt EZH2 (O75530 whole entry partner): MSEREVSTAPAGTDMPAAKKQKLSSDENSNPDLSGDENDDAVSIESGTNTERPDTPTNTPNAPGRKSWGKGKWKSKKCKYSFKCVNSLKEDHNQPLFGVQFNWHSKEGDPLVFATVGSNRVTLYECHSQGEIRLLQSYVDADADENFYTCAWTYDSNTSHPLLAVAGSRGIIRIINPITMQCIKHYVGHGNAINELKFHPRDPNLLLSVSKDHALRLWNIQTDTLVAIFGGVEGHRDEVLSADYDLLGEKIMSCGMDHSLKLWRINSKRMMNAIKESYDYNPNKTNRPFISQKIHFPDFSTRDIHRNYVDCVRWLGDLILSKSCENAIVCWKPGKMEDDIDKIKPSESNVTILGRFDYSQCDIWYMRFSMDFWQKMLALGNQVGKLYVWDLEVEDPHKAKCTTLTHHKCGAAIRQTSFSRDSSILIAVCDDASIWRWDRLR
Chain of PRC2 containing wt EZH2 (Q15022 whole entry partner): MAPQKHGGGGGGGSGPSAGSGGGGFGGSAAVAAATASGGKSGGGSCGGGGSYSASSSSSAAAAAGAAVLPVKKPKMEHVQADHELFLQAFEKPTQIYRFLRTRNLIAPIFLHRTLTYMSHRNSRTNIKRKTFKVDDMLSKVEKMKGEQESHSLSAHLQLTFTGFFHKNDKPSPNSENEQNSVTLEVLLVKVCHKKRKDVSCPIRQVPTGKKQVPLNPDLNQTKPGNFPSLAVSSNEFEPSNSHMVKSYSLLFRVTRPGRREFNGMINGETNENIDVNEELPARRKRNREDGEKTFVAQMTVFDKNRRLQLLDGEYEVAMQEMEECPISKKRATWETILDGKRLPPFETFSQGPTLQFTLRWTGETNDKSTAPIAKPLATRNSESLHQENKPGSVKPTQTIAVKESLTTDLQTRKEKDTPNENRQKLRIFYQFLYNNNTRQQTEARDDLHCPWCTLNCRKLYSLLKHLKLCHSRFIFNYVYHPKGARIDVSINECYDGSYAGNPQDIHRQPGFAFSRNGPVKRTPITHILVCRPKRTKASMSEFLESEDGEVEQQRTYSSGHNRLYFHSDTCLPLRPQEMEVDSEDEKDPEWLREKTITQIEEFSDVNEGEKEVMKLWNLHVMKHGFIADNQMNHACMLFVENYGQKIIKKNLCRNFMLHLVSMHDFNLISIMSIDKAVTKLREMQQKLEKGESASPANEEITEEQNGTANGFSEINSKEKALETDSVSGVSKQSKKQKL
Chain of PRC2 containing wt EZH2 (Q09028 whole entry partner): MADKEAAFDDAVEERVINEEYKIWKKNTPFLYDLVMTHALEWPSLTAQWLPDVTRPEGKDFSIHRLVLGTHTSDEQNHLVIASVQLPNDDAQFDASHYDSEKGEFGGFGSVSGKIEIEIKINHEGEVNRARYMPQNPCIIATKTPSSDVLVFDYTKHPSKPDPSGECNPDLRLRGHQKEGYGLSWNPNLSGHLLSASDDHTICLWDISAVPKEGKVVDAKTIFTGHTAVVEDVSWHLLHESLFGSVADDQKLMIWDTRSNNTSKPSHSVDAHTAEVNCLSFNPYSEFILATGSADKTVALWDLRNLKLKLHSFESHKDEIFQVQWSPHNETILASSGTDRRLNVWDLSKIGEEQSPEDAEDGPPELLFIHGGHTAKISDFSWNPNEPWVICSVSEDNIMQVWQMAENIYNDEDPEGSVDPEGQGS
Chain of PRC2 containing wt EZH2 (Q6ZN18 whole entry partner): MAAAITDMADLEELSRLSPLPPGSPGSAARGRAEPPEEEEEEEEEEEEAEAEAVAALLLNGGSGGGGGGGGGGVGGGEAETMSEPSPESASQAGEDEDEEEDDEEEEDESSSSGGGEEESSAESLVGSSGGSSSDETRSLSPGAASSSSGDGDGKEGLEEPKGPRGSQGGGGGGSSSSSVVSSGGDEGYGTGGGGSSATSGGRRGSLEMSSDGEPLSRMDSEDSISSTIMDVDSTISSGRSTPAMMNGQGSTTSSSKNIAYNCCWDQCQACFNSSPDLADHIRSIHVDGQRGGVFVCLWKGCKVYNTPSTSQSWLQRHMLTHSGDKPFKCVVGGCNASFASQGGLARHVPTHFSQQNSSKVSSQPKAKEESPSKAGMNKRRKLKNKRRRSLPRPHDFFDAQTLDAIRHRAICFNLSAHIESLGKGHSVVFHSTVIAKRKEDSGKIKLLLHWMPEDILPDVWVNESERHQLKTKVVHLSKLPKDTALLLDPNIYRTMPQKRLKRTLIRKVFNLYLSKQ

Structure (SMILES)	IC50 (PRC2 containing wt EZH2; [4]) [nM]	EC50 [1, 5] [nM]	other results
Cc1cc(C)c(CNC(=O)c2c(C)n([C@H](C)C3CCOCC3)c3ccccc23)c(=O)[nH]1			EC50 [1, 2]: 25 to 125 nM
COc1cc(C)[nH]c(=O)c1CNC(=O)c1c(C)n([C@H](C)C2CCOCC2)c2ccccc12			EC50 [1, 2]: 25 to 125 nM
CSc1cc(C)[nH]c(=O)c1CNC(=O)c1c(C)n([C@H](C)[C@H]2CC[C@H](NC3(C)COC3)CC2)c2ccccc12 (single isomer, unassigned) [1 (isomer 1)]	< 0.5		EC50 [1, 3]: < 10 nM
CSc1cc(C)[nH]c(=O)c1CNC(=O)c1c(C)n([C@H](C)[C@H]2CC[C@H](NC3(C)COC3)CC2)c2ccccc12 (single isomer, unassigned) [1 (isomer 2)]	< 0.5	10 to 100	
CSc1cc(C)[nH]c(=O)c1CNC(=O)c1c(C)n([C@H](C)C2CCC(NC3COC3)CC2)c2ccccc12 (single isomer, unassigned) [2 (isomer 1)]	< 0.5		EC50 [1, 3]: < 10 nM
CSc1cc(C)[nH]c(=O)c1CNC(=O)c1c(C)n([C@H](C)C2CCC(NC3COC3)CC2)c2ccccc12 (single isomer, unassigned) [2 (isomer 2)]	< 0.5	10 to 100	
CSc1cc(C)[nH]c(=O)c1CNC(=O)c1c(C)n([C@H](C)C2CCC(N(C)C3(C)COC3)CC2)c2ccccc12 (single isomer, unassigned) [3 (isomer 1)]	< 0.5		EC50 [1, 3]: < 10 nM
CSc1cc(C)[nH]c(=O)c1CNC(=O)c1c(C)n([C@H](C)C2CCC(N(C)C3(C)COC3)CC2)c2ccccc12 (single isomer, unassigned) [3 (isomer 2)]	< 0.5	10 to 100	
COC1CN(C2CCC([C@@H](C)n3c(C)c(C(=O)NCc4c(SC)cc(C)[nH]c4=O)c4ccccc43)CC2)C1 (single isomer, unassigned) [4 (isomer 1)]			EC50 [1, 3]: < 10 nM; IC50 (PRC2 containing wt EZH2; [6]): < 0.5 nM
COC1CN(C2CCC([C@@H](C)n3c(C)c(C(=O)NCc4c(SC)cc(C)[nH]c4=O)c4ccccc43)CC2)C1 (single isomer, unassigned) [4 (isomer 2)]		10 to 100	IC50 (PRC2 containing wt EZH2; [7]): < 0.5 nM
CSc1cc(C)[nH]c(=O)c1CNC(=O)c1c(C)n([C@H](C)C2OCC(NC(C)(C)C)CO2)c2ccccc12 (single isomer, unassigned) [5 (isomer 1)]	0.5 to 5		EC50 [1, 3]: 10 to 100 nM
CSc1cc(C)[nH]c(=O)c1CNC(=O)c1c(C)n([C@H](C)C2OCC(NC(C)(C)C)CO2)c2ccccc12 (single isomer, unassigned) [5 (isomer 2)]	< 0.5	< 10	
CSc1cc(C)[nH]c(=O)c1CNC(=O)c1c(C)n([C@H](C)C2OCC(NC3(C)COC3)CO2)c2ccccc12 (single isomer, unassigned) [6 (isomer 1)]	< 0.5	< 10	
CSc1cc(C)[nH]c(=O)c1CNC(=O)c1c(C)n([C@H](C)C2OCC(NC3(C)COC3)CO2)c2ccccc12 (single isomer, unassigned) [6 (isomer 2)]	0.5 to 5	> 100	
CSc1cc(C)[nH]c(=O)c1CNC(=O)c1c(C)n([C@H](C)C2OCC(N(C)C)CO2)c2ccccc12 (single isomer, unassigned) [7 (isomer 1)]	0.5 to 5	> 100	
CSc1cc(C)[nH]c(=O)c1CNC(=O)c1c(C)n([C@H](C)C2OCC(N(C)C)CO2)c2ccccc12 (single isomer, unassigned) [7 (isomer 2)]	< 0.5	< 10	

Structure (SMILES)	IC50 (PRC2 containing wt EZH2; [4]) [nM]	EC50 [1, 5] [nM]	other results
CSc1cc(C)[nH]c(=O)c1CNC(=O)c1c(C)n([C@H](C)C2COC2)c2ccccc12 (single isomer, unassigned) [14 (isomer 1)]			EC50 [1, 3]: 10 to 100 nM; IC50 (PRC2 containing wt EZH2; [6]): < 0.5 nM
CSc1cc(C)[nH]c(=O)c1CNC(=O)c1c(C)n([C@@H](C)C2COC2)c2ccccc12 (single isomer, unassigned) [14 (isomer 2)]			EC50 [1, 3]: > 100 nM; IC50 (PRC2 containing wt EZH2; [6]): > 5 nM
CSc1cc(C)[nH]c(=O)c1CNC(=O)c1c(C)n([C@H](C)C2OCC(N3CCC3(C)C)CO2)c2ccccc12 (single isomer, unassigned) [15 (isomer 1)]		< 10	IC50 (PRC2 containing wt EZH2; [6]): < 0.5 nM
CSc1cc(C)[nH]c(=O)c1CNC(=O)c1c(C)n([C@H](C)C2OCC(N3CCC3(C)C)CO2)c2ccccc12 (single isomer, unassigned) [15 (isomer 2)]		> 100	IC50 (PRC2 containing wt EZH2; [7]): < 0.5 nM
COCCN(C)C1COC([C@@H](C)n2c(C)c(C(=O)NCc3c(SC)cc(C)[nH]c3=O)c3ccccc32)OC1 (single isomer, unassigned) [16 (isomer 1)]	< 0.5	< 10	
COCCN(C)C1COC([C@@H](C)n2c(C)c(C(=O)NCc3c(SC)cc(C)[nH]c3=O)c3ccccc32)OC1 (single isomer, unassigned) [16 (isomer 2)]	> 5	> 100	
COC1CCC([C@@H](C)n2c(C)c(C(=O)NCc3c(SC)cc(C)[nH]c3=O)c3ccccc32)CC1 (single isomer, unassigned) [18 (isomer 1)]			EC50 [1, 3]: < 10 nM; IC50 (PRC2 containing wt EZH2; [6]): < 0.5 nM
COC1CCC([C@@H](C)n2c(C)c(C(=O)NCc3c(SC)cc(C)[nH]c3=O)c3ccccc32)CC1 (single isomer, unassigned) [18 (isomer 2)]		< 10	IC50 (PRC2 containing wt EZH2; [7]): < 0.5 nM
COc1cnc2c(c1)c(C(=O)NCc1c(SC)cc(C)[nH]c1=O)c(C)n2[C@H](C)C1CCC(N2CC(OC(F)F)C2)CC1 (single isomer, unassigned) [125 (isomer 2)]	< 0.5		
Cc1cc(Cl)c(CNC(=O)c2c(C)n([C@H](C)C3OCC(NC(C)(C)C)CO3)c3ccccc23)c(=O)[nH]1 (single isomer, unassigned) [drawing 222]			EC50 [1, 8]: 5 to 25 nM
COC1CCC([C@@H](C)n2c(C)c(C(=O)NCc3c(SC)cc(C)[nH]c3=O)c3ccccc32)CC1 (single isomer, unassigned) [drawing 249]			EC50 [1, 2]: < 5 nM
CSc1cc(C)[nH]c(=O)c1CNC(=O)c1c(C)n([C@H](C)C2CCC(N3CC(OC(F)F)C3)CC2)c2ccccc12 (single isomer, unassigned) [drawing 253]			EC50 [1, 8]: 5 to 25 nM
COC1CN(C2CCC([C@@H](C)n3c(C)c(C(=O)NCc4c(SC)cc(C)[nH]c4=O)c4cccnc43)CC2)C1 (single isomer, unassigned) [drawing 260]			EC50 [1, 8]: > 125 nM
CCOC1CN(C2CCC([C@@H](C)n3c(C)c(C(=O)NCc4c(SC)cc(C)[nH]c4=O)c4cccnc43)CC2)C1 (single isomer, unassigned) [drawing 262]			EC50 [1, 8]: 25 to 125 nM
CSc1cc(C)[nH]c(=O)c1CNC(=O)c1c(C)n([C@H](C)C2CCC(NC3(C)CCOC3)CC2)c2ccccc12 (single isomer, unassigned) [drawing 270]			EC50 [1, 8]: 25 to 125 nM
